The record followed here is ChEMBL document CHEMBL3507680, “University of Dundee, Gates Library screen for HepG2 cell viability”.

A short description of the series: Human HepG2 cell viability assay in 384 well format. Particulars: HepG2 cells, read-out: Inhibition. More on the design: dose 125 nL, time 70.5 hour; cytotoxicity at 70.5 h: concentration not given beside the values. The class given is toxicity, cell-based.
Turning to `O=C1COC2(CCN(Cc3ccco3)CC2)CN1Cc1cccnc1`, the cytotoxicity at 70.5 h is -7.11%. As for `CCC(=O)N1CC[C@H](O)[C@@H]1Cc1ccccc1`, the cytotoxicity at 70.5 h was -9.02%. Next, `O=C([C@H]1CCCO1)N1CC[C@@H](O)[C@@H]1Cc1ccccc1`: -8.36%; `COCCN1C(=O)CCC12CCN(C(=O)CNC(C)=O)CC2`: -8.47%; `CCN1CC2(CCCCN2C(=O)c2ccsc2)CC1=O` (stereo not drawn): 2.62%. Consider `O=C1CC2(CCCCN2C(=O)c2ccccc2)CN1CC1CC1` (stereo not drawn), for which the cytotoxicity at 70.5 h was found to be 4.75%.

`CC(=O)N1CCc2nc(N3CCCC3)nc(C)c2C1`: the cytotoxicity at 70.5 h was -0.643%. The figure for `Cc1nc(N2CCOCC2)nc2c1CN(C(=O)C(C)C)CC2` is 4.55%; for `Cc1nc(N2CCCC2)nc2c1CCN(C(=O)N1CCCC1)CC2` it is -8.89%. Next, `Cc1nc(N2CCCC2)nc2c1CN(C(=O)NC(C)C)CC2`: -3.45%. Next, `CN(CC1CC1)c1ccc2ccc(C(=O)NCCc3ccccc3)cn12`: -12.6%; `c1cc(-c2ccc3c(c2)CCC32CCNCC2)ccn1`: 26.1%. For `COCC(=O)N1CCc2nc(C(=O)N(C)C)sc2CC1`, the cytotoxicity at 70.5 h amounted to 27.3%. Turning to `Cc1occc1C(=O)N1CCCC2(CCN(c3ccccc3)C2=O)C1` (stereo not drawn), the cytotoxicity at 70.5 h was found to be 12.9%. As for `CCC(CC)C(=O)N1CCN(C)c2ncccc2C1`, the cytotoxicity at 70.5 h was -2.64%. With `CO[C@H]1CN(Cc2ccccc2F)[C@@H]2CCCO[C@H]12`, the cytotoxicity at 70.5 h was -1.13%. Consider `O=C(c1ccco1)N1CCCC2(CCN(CCN3CCCC3)C2=O)C1` (stereo not drawn), for which the cytotoxicity at 70.5 h was -3.97%.

Regarding `O=C(Cc1cccnc1)N1CCC2(CCN(C3CCOC3)CC2)C1` (stereo not drawn), the cytotoxicity at 70.5 h worked out at 20.9%.

On to `O=C(c1ccccn1)N1CCc2ncnc(N3CCOCC3)c2CC1`, for which the cytotoxicity at 70.5 h was -5.19%. For `CC(C)CNC(=O)N1C[C@H]2CC[C@@]3(N=C(c4ccccc4)NC3=O)[C@H]2C1`, the cytotoxicity at 70.5 h was -0.00686%. Next, `COCCn1cnc(-c2nc(C(=O)N3CCOCC3)c3ccccn23)c1`: 5.18%; `CC(=O)N1CCCC2(CN(Cc3ccccc3C(F)(F)F)CCO2)C1` (stereo not drawn): -2.98%; `CC(=O)N1CCCC2(CN(Cc3ccncc3)CCO2)C1` (stereo not drawn): -1.7%. As for `CC(C)n1cnc(-c2nc(C(=O)N3CCN(C)CC3)c3ccccn23)c1`, the cytotoxicity at 70.5 h was -2.41%. Next, `CC(C)n1cnc(-c2nc(C(=O)N3CCCC3)c3ccccn23)c1`: -2.79%; `c1ccc(O[C@@H]2CC[C@H]3[C@H]2OCCN3Cc2ccsc2)nc1`: 8.42%; `O=C(C1CCOCC1)N1CCc2ncnc(-c3ccccc3)c2CC1`: 1.86%.

Turning to `CCOc1ncnc2c1CCN(C(=O)c1cnccn1)CC2`, the cytotoxicity at 70.5 h was found to be 1.88%. For the compound `Cc1cnc(N2CC[C@@H]3CN(CCC(C)C)S(=O)(=O)[C@@H]3CC2)nc1`, the cytotoxicity at 70.5 h is -1.61%.

Take `O=C(c1ccnnc1)N1C[C@H]2CCC[C@@H](OCc3cccnc3)[C@@H]2C1`: the cytotoxicity at 70.5 h is -3.26%.

On to `c1ccc(OCC2CC3(CCN(Cc4ccncc4)CC3)CO2)nc1` (stereo not drawn), for which the cytotoxicity at 70.5 h is -18.6%. The figure for `O=S(=O)(C1CC1)N1CCC2(COCc3cnc(N4CCOCC4)nc32)C1` (stereo not drawn) is 4.94%; for `O=C(c1ccco1)N1CCC2(CCOC2)C1` (stereo not drawn) it is -13.3%. The figure for `Cc1nc(CN2CCCn3c(nc(Cn4ccnc4)cc3=O)C2)cs1` is -21.2%. `CC(=O)N1CC[C@H]2OCC[C@@H](C(=O)N3CCCCO3)[C@@H]2C1`: the cytotoxicity at 70.5 h is -20.9%.

Consider `O=C([C@@H]1CCO[C@@H]2CCN(Cc3cccnc3)C[C@H]21)N1CCCCO1`, for which the cytotoxicity at 70.5 h is -13.8%. The figure for `CC(=O)N1CC2(CCNCC2)c2cc(Cl)ccc21` is -6.66%; for `Cn1cc(CN2CCc3c(CNC(=O)C4CC4)cncc3C2)cn1` it is -1.11%; for `COc1cccc(CN2CCCC3(CCN(C(=O)N4CCCC4)C3)C2)c1` (stereo not drawn) it is -7.71%. On to `CC(=O)N1[C@@H](C(=O)NCC2CC2)C[C@@H]2CN(Cc3nccs3)C[C@@H]21`, for which the cytotoxicity at 70.5 h was -9.23%. The figure for `Cc1cccc(CN2CCC3(CC2)NC(=O)CC3c2ccccc2)n1` (stereo not drawn) is -7.81%; for `O=C1CC(c2ccccc2)C2(CCN(Cc3nccs3)CC2)N1` (stereo not drawn) it is -9.09%; for `CN1CCOCC12CCN(C(=O)C1CCC1)CC2` it is 1.58%.

Turning to `Cc1cccc(CN2C(=O)CCC23CCN(C(=O)c2ccco2)CC3)n1`, the cytotoxicity at 70.5 h stood at 0.736%. The figure for `Cc1cccc(CN2C(=O)CCC23CCN(C(=O)N2CCCC2)CC3)n1` is 0.698%; for `CN1CCN(C(=O)CCc2ccccc2)Cc2cccnc21` it is 16.1%; for `COCC1CN(C(=O)Cc2ccccn2)Cc2ncnn2C1` (stereo not drawn) it is 16.8%. As for `O=C1[C@H]2CN(Cc3ccccc3)C[C@H]2CN1c1cncnc1`, the cytotoxicity at 70.5 h is -2.62%. The figure for `Cc1occc1C(=O)N1CCC2(CCN(Cc3cccs3)C2)CC1` is -1.13%; for `Cc1ccc(CN2Cc3nnn(C)c3C(COCC3CC3)C2)o1` (stereo not drawn) it is -5.52%; for `O=C1[C@H]2CN(Cc3ccco3)C[C@H]2CN1c1cncnc1` it is -5.56%.

As for `Cc1occc1C(=O)N1CCC2(CC1)CN(Cc1nccs1)CCO2`, the cytotoxicity at 70.5 h is 7.01%. In the case of `Fc1cccc(-c2nnn3c2COC(CNCc2cccs2)C3)c1` (stereo not drawn), the cytotoxicity at 70.5 h was determined as 1.1%. `CNC(=O)[C@H]1C[C@@H]2CN(S(=O)(=O)c3ccc(OC)cc3)C[C@@H]2N1C`: the cytotoxicity at 70.5 h was -1.32%. The figure for `CNC(=O)[C@H]1C[C@@H]2CN(S(=O)(=O)c3ccc(C)c(F)c3)C[C@@H]2N1C` is -3.95%; for `O=C(Cc1ccccn1)N1CCc2ncnc(N3CCCC3)c2CC1` it is -0.341%; for `COCc1nnc2n1CCN(Cc1ccoc1)C2` it is -3.74%. As to `Cc1ccsc1C(=O)N1CCCn2c(nc(CN(C)C)cc2=O)C1`, the cytotoxicity at 70.5 h was determined as 8.58%. As to `O=C(c1ccsc1)N1C[C@H]2CN(Cc3cccnc3)C(=O)[C@H]2C1`, the cytotoxicity at 70.5 h stood at 4.1%. Take `Cc1ccc(C(=O)N2CC3(CCCCC3)c3cc(C(=O)O)ccc32)cn1`: the cytotoxicity at 70.5 h was found to be 0.0823%. For the compound `O=C(C1CCC1)N1CCC2(CCN(Cc3cccc(F)c3)CC2)CC1`, the cytotoxicity at 70.5 h was 18.6%. Next, `O=C(NC1CCCC1)[C@H]1CC[C@@H]2[C@@H](CCN2c2ncc(F)cn2)O1`: 13.4%; `CC(=O)N1CCCC2(CN(Cc3ccc(C)s3)CCO2)C1` (stereo not drawn): 0.871%; `O=C(NC1CC1)N1CC[C@H](OCC2CC2)[C@@H]1Cc1cccnc1`: 1.68%. With `O=C1CC2(CCCCN2C(=O)Cc2ccccc2)CN1c1cccnc1` (stereo not drawn), the cytotoxicity at 70.5 h is -1.11%. Turning to `O=C(N1CCOCC1)N1CCc2ncnc(Oc3cccnc3)c2CC1`, the cytotoxicity at 70.5 h was -2.03%. The figure for `O=C(c1ccco1)N1CCc2ncnc(Oc3cccnc3)c2CC1` is -0.464%; for `CCc1cnc(N2CC[C@@H]3CN(CCC(C)C)S(=O)(=O)[C@@H]3CC2)nc1` it is -4.3%; for `CN(C)C(=O)CN1C[C@H]2CCN(c3ncccn3)CC[C@H]2S1(=O)=O` it is -0.338%. `O=C(NCc1cccs1)C1CNCC12CCOCC2` (stereo not drawn): the cytotoxicity at 70.5 h amounted to 0.759%.

For the compound `CN1CCC2(CCN(Cc3nccs3)CC2)C1=O`, the cytotoxicity at 70.5 h was -1.5%. Next, `COCCNC(=O)[C@@H]1CC[C@@H]2[C@@H](CCN2c2ncc(F)cn2)O1`: -3.55%.

`COc1ccccc1CN1CC[C@]2(C[C@H](OC)CO2)C1`: the cytotoxicity at 70.5 h is -12.6%.

For `CN1CCC2(COCc3cnc(N4CCOCC4)nc32)C1` (stereo not drawn), the cytotoxicity at 70.5 h is -16.8%. Turning to `Cc1noc(C)c1CN1C[C@H](C)[C@]2(CCN(Cc3cccnc3)C2=O)C1`, the cytotoxicity at 70.5 h is -8.9%. The figure for `CN(C)CCN1CCCC12CCN(C(=O)c1ccncc1)CC2` is -7.81%; for `COc1cc(C(=O)N2CC3(CCNCC3)c3cc(Cl)ccc32)ccn1` it is -6.87%. Turning to `Cc1cccc(CN2CCCC3(CCC(=O)N3CCN(C)C)CC2)n1` (stereo not drawn), the cytotoxicity at 70.5 h is -3.65%. Next, `COCC1CN(Cc2ccc(C)o2)Cc2cnn(CC3CCOCC3)c21` (stereo not drawn): 6.49%. The figure for `c1cncc(COCc2nnc3n2CCN(Cc2ccco2)C3)c1` is 1.97%; for `c1ccc(O[C@@H]2CC[C@H]3[C@H]2OCCN3CC2CCOCC2)nc1` it is 1.68%.

With `c1ccc(CO[C@H]2CC[C@H]3[C@H]2OCCN3Cc2nccs2)nc1`, the cytotoxicity at 70.5 h worked out at 1.15%.

Take `Cc1cccc(CN2CCC3(CCN(c4cccnc4)C3=O)C2)n1` (stereo not drawn): the cytotoxicity at 70.5 h turned out to be 2.95%. With `Cc1noc(C)c1CN1CCO[C@H]2[C@H](Oc3ccccn3)CC[C@@H]21`, the cytotoxicity at 70.5 h is -0.309%. In the case of `c1ccc(O[C@@H]2CN(Cc3nccs3)[C@@H]3CCCO[C@@H]32)nc1`, the cytotoxicity at 70.5 h came to 1.57%. Next, `O=C1N(c2cccnc2)CCC12CCCN(Cc1ccco1)C2` (stereo not drawn): -3.89%; `COc1ccc(CN2CCO[C@H]3[C@H](Oc4ccccn4)CC[C@@H]32)cc1`: -2.38%; `CC(=O)N1[C@H](Cn2cncn2)C[C@@H]2CN(Cc3ccncc3)CC[C@@H]21`: -3.75%.

For `CN1CCN(Cc2cn3c(n2)CN(C(=O)c2cccn2C)CC3)CC1`, the cytotoxicity at 70.5 h was -4.16%. `Cn1cnc2c(N3CCCC3)nc(C3CCN(CC4CC4)CC3)cc21`: the cytotoxicity at 70.5 h is -0.352%.

For the compound `O=C(N1CCOCC1)[C@@]12CCO[C@@H]1CCN(CCN1CCCCC1)C2`, the cytotoxicity at 70.5 h is -20.4%. Turning to `O=C1N(c2cccnc2)CCC12CCCN(Cc1cccnc1)C2` (stereo not drawn), the cytotoxicity at 70.5 h is -4.25%. Take `CO[C@H]1CCN(Cc2ccccn2)[C@@H]2CN(Cc3ccco3)C[C@H]12`: the cytotoxicity at 70.5 h is -20.1%.
